Reference: article PMC8119212 (JCI Insight, 2021)
Entries after “also recorded” stand apart in the source; their conditions may differ.

What was measured:
[1] = target: ALK2 (WT) GS and kinase domain (Homo sapiens, UniProt Q04771); assay: DSF thermal shift, wild-type ALK2; assay type: binding
[2] = tested on: ACVR1^Q207D-transgenic mouse (CAG-Z-eGFP-caALK2-Tg); assay: ACVR1^Q207D-Tg mouse model of heterotopic ossification; conditions: for mobility (passive range of motion): 6 mg/kg intraperitoneally twice daily, not shown
Text: In these animals, activation of the ACVR1^Q207D transgene and associated GFP reporter is mediated by a single intramuscular injection of Adenovirus expressing Cre recombinase (Ad.Cre) in the left hindlimb on P7. This induces the expression of the human ACVR1^Q207D transgene, as well as muscle necrosis and inflammation, which together result in the formation of heterotopic bone lesions within 7–10 days following Ad.Cre injection ([16]). This model is believed to recapitulate aspects of clinical HO and FOP, in which muscle injury and inflammation potentiate the formation of heterotopic bone in soft tissues.
(D) Representative hindlimb scoring system. All range of motion scoring was performed by 2 separate operators who were blinded to the treatment condition of the animal.
Mice were maintained in accordance with IACUC guidelines under approved experimental protocols. Cre-inducible ACVR1^Q207D (CAG-Z-eGFP-caACVR1-Tg) transgenic mice were a gift from Yuji Michina (University of Michigan, Ann Arbor, Michigan, USA) as previously described ([31]). Acvr1^[R206H]FlEx/+ mice were generated as previously described ([13]). Heterotopic bone formation in these mice was introduced via single retro-popliteal injection of adenoviral Cre-recombinase at 1 × 10^8 PFU at P7. […] Bone formation as a function of a loss of passive range of motion, via dorsiflexion of the left ankle joint was assessed daily. Scores were assessed by 2 independent observers blinded to genotype and treatment. […] To monitor the progression of HO during the in vivo studies, x-ray radiographs were also imaged at various time points. Mice were anesthetized using ketamine at 100 mg/kg and imaged nonterminally in the prone position with tibial lateralization and hip abduction, allowing for reproducible positioning. Radiographs were obtained using 30-second scans and 50 kV exposures (MS FX In Vivo Pro: Carestream Imaging). […] After reconstruction, regions of interest were chosen and exported into DICOM format, and analyzed by Osirix analysis software. Fixed soft tissues and bone were stained with alizarin red and Alcian blue as previously described ([62]).

[3] = target: T1, recombinant ALK5 kinase domain (Homo sapiens, UniProt P36897); assay: LANCE Ultra TR-FRET kinase assay, ALK5; assay type: biochemical; conditions: 10 nM kinase, 50 μM peptide substrate, 10 μM ATP
T1 construct: purified recombinant ALK1-6 kinase domains; purchased Carna Bioscience 09-134

BMP2 signaling = assay: cells; conditions: Homo sapiens, MDA-MB-231
Experimental: (§1) Reactions contained 10 nM kinase, 50 μM peptide substrate, and 10 μM ATP. Data shown are plotted as mean ± SD. (n = 3 independent replicates). […] Data shown are representative of more than 3 independent experiments, with data plotted as mean ±SEM. (n = 3 replicates). […] Data shown are plotted as mean ± SD. (n ≥ 3 independent replicates).
(§2) For subsequent investigations of ligand-dependent receptor signaling we used MDA-MB-231 cells stably expressing either the BRE-Luc or CAGA-Luc construct.
(§3) MDA-MB-231 cells stably expressing BRE-Luc or CAGA-Luc were generously provided by Caroline Hill (Francis Crick Institute). […] LUC activity was measured using the Promega Dual LUC Reporter Assay system and percentage activity determined compared with cells treated with growth factor and no inhibitor. Growth factors (Peprotech) were used at the following concentrations: 500 ng/mL BMP2, 10 ng/mL BMP4, 500 ng/mL BMP6, 500 ng/mL BMP7, 4 ng/mL TGF-β, and 200 ng/mL activin A. Experiments were repeated at least 3 times and plotted as mean ± SD.

activin A signaling = assay: cells; conditions: Homo sapiens, MDA-MB-231
Experimental: as §1, §2, §3

BMP4 signaling = assay: cells; conditions: Homo sapiens, MDA-MB-231
Experimental: as §1, §2, §3

BMP6 signaling = assay: cells; conditions: Homo sapiens, MDA-MB-231
Experimental: as §1, §2, §3

BMP7 signaling = assay: cells; conditions: Homo sapiens, MDA-MB-231
Experimental: as §1, §2, §3

[4] = cited from earlier work
ARG (ABL2) = ARG (ABL2) (Homo sapiens, UniProt P42684); assay: Caliper kinase profiling (Nanosyn), ARG; assay type: biochemical
TNIK = TNIK (Homo sapiens, UniProt Q9UKE5); assay: Caliper kinase profiling (Nanosyn), TNIK; assay type: biochemical
[5] = target: T2, recombinant ALK6 kinase domain (Homo sapiens, UniProt O00238); assay: LANCE Ultra TR-FRET kinase assay, ALK6; assay type: biochemical; conditions: 10 nM kinase, 50 μM peptide substrate, 10 μM ATP
T2 construct: purified recombinant ALK1-6 kinase domains; purchased Carna Bioscience 09-134
Text: (§4) Data shown are plotted as mean ± SD. (n = 3 independent replicates). […] (n = 3 replicates). […] Data shown are plotted as mean ± SD. (n ≥ 3 independent replicates).
(§5) Recombinant ALK1 was obtained from Life Technology (catalog PV4883). Recombinant ALK2 to ALK6 were purchased from Carna Bioscience (catalog 09-134). A LANCE Ultra TR-FRET kinase assay was used for measurements of enzyme activities that included a ULight-labeled (Thr-1342) peptide substrate (catalog TRF0130-M, PerkinElmer) and a Europium-labeled anti-phospho peptide antibody (catalog TRF0218-M). The kinase reaction was carried out in a buffer containing 10 mM MgCl2, 3 mM MnCl2, 0.005% Tween-20, 2 mM DTT, and 50 mM HEPES, pH 7.0. The details of the enzyme assays will be reported in a separate paper (our unpublished observations). Briefly, 2.5 μL/well kinase protein (10 nM final) was dispensed to a white solid 1536-well plate followed by addition of 23 nL/well compound diluted in DMSO using a Pin-tool station (Wako-Kalypsis). After a 10-minute incubation at room temperature, 2.5 μL/well substrate solution (50 μM peptide and 10 μM ATP, final) was added, and the assay plate was incubated for 60 minutes at room temperature. […] The signals of time-resolved fluorescence resonance energy transfer (TR-FRET) assay were measured in an Envision plate reader (PerkinElmer) with a TR-FRET mode (Ex = 320, Em1 = 665, and Em2 = 615 nm).

[6] = target: T3, recombinant ALK1 kinase domain (Homo sapiens, UniProt P37023); assay: LANCE Ultra TR-FRET kinase assay, ALK1; assay type: biochemical; conditions: 10 nM kinase, 50 μM peptide substrate, 10 μM ATP
T3 construct: purified recombinant ALK1-6 kinase domains; purchased Life Technology PV4883
Text: as §4, §5

[7] = target: T4, recombinant ALK3 kinase domain (Homo sapiens, UniProt P36894); assay: LANCE Ultra TR-FRET kinase assay, ALK3; assay type: biochemical; conditions: 10 nM kinase, 50 μM peptide substrate, 10 μM ATP
T4 construct: purified recombinant ALK1-6 kinase domains; purchased Carna Bioscience 09-134
Text: as §4, §5

TGF-β signaling = assay: cells; conditions: Homo sapiens, MDA-MB-231
[8] = target: T5, recombinant ALK4 kinase domain (Homo sapiens, UniProt P36896); assay: LANCE Ultra TR-FRET kinase assay, ALK4; assay type: biochemical; conditions: 10 nM kinase, 50 μM peptide substrate, 10 μM ATP
T5 construct: purified recombinant ALK1-6 kinase domains; purchased Carna Bioscience 09-134

zebrafish embryos = assay: Zebrafish embryo dorsalization; assay type: in vivo; conditions: incubation starting at 0.5 hours after fertilization
Experimental: Dorsoventral axis specification during embryogenesis is regulated by the activity of BMP signaling agonists and antagonists ([30]).
Zebrafish embryos were treated with varying inhibitor concentrations from less than or equal to 0.5 hours after fertilization. Inhibitor stocks (20 mM) were diluted in fish water from DMSO. Embryos were scored according to Mullins et al. ([61]).

LYN = LYN (Homo sapiens, UniProt P07948); assay: Caliper kinase profiling (Nanosyn), LYN; assay type: biochemical
HCK = HCK (Homo sapiens, UniProt P08631); assay: Caliper kinase profiling (Nanosyn), HCK; assay type: biochemical
HEK293 cells = conditions: human
Experimental: (§6) Inhibition of the BMP receptors caALK1, caALK2, and caALK3 was assessed via the activity of a BMP-response element LUC reporter (BRE-Luc) stably expressed in the C2C12 cell line, whereas the activin (caALK4) and TGF-β (caALK5) receptors were profiled via a CAGA-Luc reporter construct stably expressed in HEK293 cells (Figure 2B). […] Cell viability was assayed with an MTT (3-[4,5-dimethylthiazol-2-yl]-2,5-diphenyl tetrazolium bromide) colorimetric assay (Promega) per the manufacturer’s instructions.
(§7) lines was determined using the MTT cell viability assay . Data were plotted as mean + S.E.M. and
(§8) (1 picture or pasted object on this page, not shown here)

C2C12 cells = conditions: mouse
Experimental: as §6, §7, §8

[9] = tested on: BMP7-induced phosphorylation of SMAD1/5; assay: Western blot, BMP7-induced phospho-SMAD1/5 in C2C12 cells; conditions: 100 nM saracatinib
[10] = tested on: TGF-β–dependent phosphorylation of SMAD2; conditions: C2C12 cells; Western blot
RIPK2 = RIPK2 (Homo sapiens, UniProt O43353); assay: Caliper kinase profiling (Nanosyn), RIPK2; assay type: biochemical

ALK2 (WT) GS and kinase domain, sequence (Q04771 172-499): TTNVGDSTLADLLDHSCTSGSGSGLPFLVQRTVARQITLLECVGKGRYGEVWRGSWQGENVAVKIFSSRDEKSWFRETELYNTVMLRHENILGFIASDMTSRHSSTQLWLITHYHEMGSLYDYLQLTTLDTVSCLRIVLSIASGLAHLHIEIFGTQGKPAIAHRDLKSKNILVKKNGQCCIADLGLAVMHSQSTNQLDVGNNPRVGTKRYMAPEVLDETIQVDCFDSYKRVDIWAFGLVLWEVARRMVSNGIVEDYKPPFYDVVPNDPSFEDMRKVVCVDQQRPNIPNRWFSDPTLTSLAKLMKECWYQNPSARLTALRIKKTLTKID
T1 sequence (P36897 205-495 limits assumed): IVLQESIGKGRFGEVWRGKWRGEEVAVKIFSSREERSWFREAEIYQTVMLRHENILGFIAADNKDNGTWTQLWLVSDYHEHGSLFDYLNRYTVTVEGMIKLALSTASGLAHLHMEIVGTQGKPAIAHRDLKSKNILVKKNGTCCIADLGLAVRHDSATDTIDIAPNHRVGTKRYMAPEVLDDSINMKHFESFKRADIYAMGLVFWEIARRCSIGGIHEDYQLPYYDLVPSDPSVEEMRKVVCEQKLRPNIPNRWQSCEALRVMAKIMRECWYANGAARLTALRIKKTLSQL
TNIK, sequence (Q9UKE5 whole entry, the tested form may be a part): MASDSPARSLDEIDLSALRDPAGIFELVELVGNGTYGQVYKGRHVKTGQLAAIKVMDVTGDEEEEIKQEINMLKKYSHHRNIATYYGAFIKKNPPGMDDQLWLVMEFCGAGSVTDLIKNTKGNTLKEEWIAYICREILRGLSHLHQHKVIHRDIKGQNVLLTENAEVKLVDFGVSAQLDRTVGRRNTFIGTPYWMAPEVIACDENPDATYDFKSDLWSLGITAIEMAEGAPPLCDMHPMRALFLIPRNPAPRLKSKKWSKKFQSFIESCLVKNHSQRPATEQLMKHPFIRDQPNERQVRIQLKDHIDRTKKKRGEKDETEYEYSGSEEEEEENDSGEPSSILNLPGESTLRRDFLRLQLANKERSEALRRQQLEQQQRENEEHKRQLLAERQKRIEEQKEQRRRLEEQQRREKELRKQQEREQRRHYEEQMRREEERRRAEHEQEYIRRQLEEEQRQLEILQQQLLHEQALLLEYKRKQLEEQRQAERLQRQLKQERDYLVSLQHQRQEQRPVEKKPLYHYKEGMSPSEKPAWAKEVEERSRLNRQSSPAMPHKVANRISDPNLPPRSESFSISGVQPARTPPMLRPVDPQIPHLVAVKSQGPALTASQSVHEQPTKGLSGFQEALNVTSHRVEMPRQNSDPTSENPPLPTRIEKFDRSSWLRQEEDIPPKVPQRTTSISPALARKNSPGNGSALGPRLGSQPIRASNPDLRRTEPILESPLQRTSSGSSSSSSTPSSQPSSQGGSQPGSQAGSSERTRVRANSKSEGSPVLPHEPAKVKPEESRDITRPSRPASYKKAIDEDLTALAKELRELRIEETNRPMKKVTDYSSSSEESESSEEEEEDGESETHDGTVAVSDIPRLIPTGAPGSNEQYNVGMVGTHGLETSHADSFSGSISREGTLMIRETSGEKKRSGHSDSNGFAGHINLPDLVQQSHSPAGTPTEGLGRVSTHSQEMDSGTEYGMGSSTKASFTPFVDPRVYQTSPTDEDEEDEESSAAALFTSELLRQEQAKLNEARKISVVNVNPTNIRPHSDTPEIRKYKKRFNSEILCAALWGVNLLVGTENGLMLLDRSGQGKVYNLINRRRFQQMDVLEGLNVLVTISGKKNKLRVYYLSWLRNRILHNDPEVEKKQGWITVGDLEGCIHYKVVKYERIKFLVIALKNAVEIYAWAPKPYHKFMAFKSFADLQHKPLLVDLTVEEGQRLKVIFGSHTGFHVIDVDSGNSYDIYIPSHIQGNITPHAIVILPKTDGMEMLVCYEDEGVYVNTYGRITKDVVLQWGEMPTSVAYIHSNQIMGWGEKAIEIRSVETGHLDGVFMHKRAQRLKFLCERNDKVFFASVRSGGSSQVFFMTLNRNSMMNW
HCK, sequence (P08631 whole entry): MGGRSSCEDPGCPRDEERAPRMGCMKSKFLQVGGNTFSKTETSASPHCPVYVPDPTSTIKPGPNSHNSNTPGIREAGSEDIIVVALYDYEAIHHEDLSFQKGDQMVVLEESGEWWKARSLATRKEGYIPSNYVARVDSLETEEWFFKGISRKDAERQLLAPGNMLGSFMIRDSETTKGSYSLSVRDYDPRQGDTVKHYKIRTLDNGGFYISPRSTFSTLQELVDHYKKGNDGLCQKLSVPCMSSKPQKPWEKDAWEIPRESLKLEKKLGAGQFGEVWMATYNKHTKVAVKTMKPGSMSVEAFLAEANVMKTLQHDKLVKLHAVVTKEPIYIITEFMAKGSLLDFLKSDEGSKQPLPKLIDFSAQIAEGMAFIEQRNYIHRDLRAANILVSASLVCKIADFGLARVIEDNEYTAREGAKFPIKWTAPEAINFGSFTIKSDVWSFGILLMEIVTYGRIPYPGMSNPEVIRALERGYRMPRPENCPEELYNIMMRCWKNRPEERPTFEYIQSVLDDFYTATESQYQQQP
ARG (ABL2), sequence (P42684 whole entry): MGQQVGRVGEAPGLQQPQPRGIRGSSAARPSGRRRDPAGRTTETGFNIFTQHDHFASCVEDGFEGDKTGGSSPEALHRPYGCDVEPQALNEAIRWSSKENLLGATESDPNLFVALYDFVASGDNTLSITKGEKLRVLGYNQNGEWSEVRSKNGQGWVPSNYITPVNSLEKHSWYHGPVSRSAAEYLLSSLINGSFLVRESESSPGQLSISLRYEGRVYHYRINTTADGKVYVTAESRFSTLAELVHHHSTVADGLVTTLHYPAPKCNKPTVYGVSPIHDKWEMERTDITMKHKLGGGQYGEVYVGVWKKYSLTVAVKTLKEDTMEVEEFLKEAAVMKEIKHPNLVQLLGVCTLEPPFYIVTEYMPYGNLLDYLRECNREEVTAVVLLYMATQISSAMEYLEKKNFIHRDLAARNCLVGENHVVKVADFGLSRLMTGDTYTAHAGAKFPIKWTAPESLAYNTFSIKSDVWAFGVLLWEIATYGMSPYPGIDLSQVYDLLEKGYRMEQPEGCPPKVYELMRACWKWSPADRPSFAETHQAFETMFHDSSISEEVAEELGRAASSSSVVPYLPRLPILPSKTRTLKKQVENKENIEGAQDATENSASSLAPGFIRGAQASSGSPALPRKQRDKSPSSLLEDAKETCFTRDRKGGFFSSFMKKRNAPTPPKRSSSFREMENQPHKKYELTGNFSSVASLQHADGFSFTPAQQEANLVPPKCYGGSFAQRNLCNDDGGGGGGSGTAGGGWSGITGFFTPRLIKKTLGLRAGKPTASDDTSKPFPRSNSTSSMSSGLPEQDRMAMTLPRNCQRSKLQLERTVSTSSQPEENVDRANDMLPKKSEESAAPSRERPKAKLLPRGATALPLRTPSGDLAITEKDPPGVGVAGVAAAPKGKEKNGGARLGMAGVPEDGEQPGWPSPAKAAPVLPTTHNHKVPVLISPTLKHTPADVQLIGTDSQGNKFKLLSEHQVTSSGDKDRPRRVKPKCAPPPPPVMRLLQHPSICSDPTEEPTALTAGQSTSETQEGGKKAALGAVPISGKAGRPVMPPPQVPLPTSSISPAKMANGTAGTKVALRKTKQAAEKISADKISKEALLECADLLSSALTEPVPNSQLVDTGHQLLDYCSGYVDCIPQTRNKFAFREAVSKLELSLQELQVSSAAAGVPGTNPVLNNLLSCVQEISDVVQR
T5 sequence (P36896 207-497 limits assumed): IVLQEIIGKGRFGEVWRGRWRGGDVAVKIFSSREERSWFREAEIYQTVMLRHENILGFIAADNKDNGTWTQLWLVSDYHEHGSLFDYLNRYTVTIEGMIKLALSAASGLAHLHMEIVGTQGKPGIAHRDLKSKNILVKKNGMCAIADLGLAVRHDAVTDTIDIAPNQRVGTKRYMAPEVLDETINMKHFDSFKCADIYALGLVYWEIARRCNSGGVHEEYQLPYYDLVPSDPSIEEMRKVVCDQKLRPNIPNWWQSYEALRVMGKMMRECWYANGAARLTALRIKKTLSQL
T4 sequence (P36894 234-525 limits assumed): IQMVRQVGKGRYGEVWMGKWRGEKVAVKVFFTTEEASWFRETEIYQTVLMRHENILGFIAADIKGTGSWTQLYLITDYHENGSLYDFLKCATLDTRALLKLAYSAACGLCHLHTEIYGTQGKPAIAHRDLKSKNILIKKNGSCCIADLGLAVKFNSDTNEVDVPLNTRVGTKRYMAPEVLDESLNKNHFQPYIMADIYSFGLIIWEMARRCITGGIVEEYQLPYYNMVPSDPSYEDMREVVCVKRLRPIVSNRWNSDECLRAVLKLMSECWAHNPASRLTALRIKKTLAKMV
LYN, sequence (P07948 whole entry): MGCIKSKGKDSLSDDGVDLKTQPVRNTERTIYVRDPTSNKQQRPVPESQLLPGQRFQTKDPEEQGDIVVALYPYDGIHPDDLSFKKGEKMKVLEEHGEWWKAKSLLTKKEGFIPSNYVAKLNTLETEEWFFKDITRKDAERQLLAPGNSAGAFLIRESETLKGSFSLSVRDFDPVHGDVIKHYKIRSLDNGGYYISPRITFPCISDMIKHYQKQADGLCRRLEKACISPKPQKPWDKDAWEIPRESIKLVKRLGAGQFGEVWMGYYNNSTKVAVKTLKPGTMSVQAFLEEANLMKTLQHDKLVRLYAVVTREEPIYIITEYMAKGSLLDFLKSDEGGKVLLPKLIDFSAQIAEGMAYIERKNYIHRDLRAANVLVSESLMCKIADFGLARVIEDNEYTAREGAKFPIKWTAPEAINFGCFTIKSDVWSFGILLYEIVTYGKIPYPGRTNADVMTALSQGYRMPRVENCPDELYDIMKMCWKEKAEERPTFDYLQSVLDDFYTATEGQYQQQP

Q: Which “ΔTm (thermal shift)” value ([1]; ALK2 WT, 2 μM protein, 12.5 μM compound) does the source give for `COc1cc(N2CCC(N3CCN(C)CC3)CC2)ccc1Nc1ncnc(Nc2ccccc2S(=O)(=O)C(C)C)n1` [ASP3026] here?
A: The value was 10.7 °C.

Q: For `c1ccc2c(-c3cnn4cc(-c5ccc(N6CCNCC6)cc5)cnc34)ccnc2c1` [LDN-193189], which “mobility (passive range of motion)” value [2] is on record?
A: Its value is “almost entirely preserved”.

Q: For `c1cc(-c2cnn3cc(-c4ccc(N5CCNCC5)cc4)cnc23)c2cccnc2c1` [LDN-212854], which “weight loss relative to vehicle-treated animals” value ([2]; 6 mg/kg i.p. twice daily) is on record?
A: Its value is 10%–25%.

Q: What about the “mobility (passive range of motion)” value [2] of the same compound?
A: The value was “almost entirely preserved”.

Q: Which results are given for `CN1CCN(CCOc2cc(OC3CCOCC3)c3c(Nc4c(Cl)ccc5c4OCO5)ncnc3c2)CC1` [saracatinib]?
A: IC50 [3]: 6890 nM; IC50 (BMP2 signaling): 61 nM; IC50 (activin A signaling): 72 nM; IC50 (BMP4 signaling): 131 nM; IC50 (BMP6 signaling): 8.9 nM; IC50 (BMP7 signaling): 5.5 nM; t1/2 [4]: approximately 40 hours; primary side effect ([4]; doses up to 125 mg daily for 9–12 months, phase II): gastrointestinal discomfort; daily dose up to which safe ([4]; healthy volunteers): ≤ 250 mg; adverse effects associated with higher doses ([4]; previous oncology trials, higher doses): neutropenia and thrombocytopenia; inhibition at 0.1 µM (ARG (ABL2)): > 50%; inhibition at 0.1 µM (TNIK): > 50%; IC50 [5]: 6130 nM; IC50 [6]: 19 nM; IC50 [7]: 621 nM; IC50 (TGF-β signaling): 305 nM; IC50 [8]: 3900 nM; cyclopia or mesoderm specification phenotypes (zebrafish embryos): no evidence of cyclopia or phenotypes suggesting inhibition of mesoderm specification; dorsalization phenotype (zebrafish embryos): dorsalized phenotype that increased in severity in a dose-dependent manner; inhibition at 0.1 µM (LYN): > 50%; inhibition at 0.1 µM (HCK): > 50%; concentration up to which well tolerated (HEK293 cells): approximately 40 μM; concentration up to which well tolerated (C2C12 cells): approximately 40 μM; BMP7-induced phosphorylation of SMAD1/5 [9]: completely inhibited; inhibitor concentration at which TGF-β–dependent phosphorylation of SMAD2 was blocked [10]: 5 µM; inhibition at 0.1 µM (RIPK2): > 50%

Q: What does the source list for `COc1cc2c(Nc3ccc(Br)cc3F)ncnc2cc1OCC1CCN(C)CC1` [vandetanib]?
A: binding to ALK2 (in words) ([1]; Supplemental Figure 1C): does not show any notable binding to ALK2; HO formation / range of motion ([2]; 25 mg/kg i.p. twice daily for 28 days): no evidence of improvement in radiographic HO or range-of motion; also recorded: did not block HO formation
